ChEMBL document CHEMBL1201862, “PubChem BioAssay data set” (2004)
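The compound was tested at five concentrations on cells cultured in 96-well plates, with a 48-hour exposure period. GI50 = concentration required for 50% inhibition of growth.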 Activity calls are given as the source filed them. Rule as the data show it: active = GI50 up to about 1.1 µM and inactive = higher.

Assays:
Assay in all cases: growth of human tumour cells (NCI), 48 h
786-0 = system: 786-0
A549 = system: A549
ACHN = system: ACHN
COLO 205 = system: COLO 205
HCC 2998 = system: HCC 2998
Hs-578T = system: Hs-578T
M14 = system: M14
MDA-MB-231 = system: MDA-MB-231
MDA-MB-435 = system: MDA-MB-435
MOLT-4 = system: MOLT-4
NCI-H460 = system: NCI-H460
OVCAR-4 = system: OVCAR-4
PC-3 = system: PC-3
RXF 393 = system: RXF 393
SF-539 = system: SF-539
SN12C = system: SN12C
TK-10 = system: TK-10
UACC-257 = system: UACC-257
EKVX = system: EKVX

SMILES | GI50 (786-0) | GI50 (A549) | GI50 (ACHN) | GI50 (COLO 205) | GI50 (HCC 2998) | GI50 (Hs-578T) | GI50 (M14) | GI50 (MDA-MB-231) | GI50 (MDA-MB-435) | GI50 (MOLT-4) | GI50 (NCI-H460) | GI50 (OVCAR-4) | GI50 (PC-3) | GI50 (RXF 393) | GI50 (SF-539) | GI50 (SN12C) | GI50 (TK-10) | GI50 (UACC-257) | GI50 (EKVX)
CCOC(=O)c1ccc2c(c1)nc1n2C(c2c(F)cccc2F)SC1 (centres undefined) | 23.4 µM (inactive) | 23.6 µM (inactive) | 18.3 µM (inactive) | 14.2 µM (inactive) | 35.8 µM (inactive) | 26.2 µM (inactive) | 27.9 µM (inactive) | > 100 µM (inactive) | 30.6 µM (inactive) | 26.8 µM (inactive) | 26.3 µM (inactive) | 46.6 µM (inactive) | 21.3 µM (inactive) | 51.6 µM (inactive) | 21.4 µM (inactive) | 56.4 µM (inactive) | 80.9 µM (inactive) | 38 µM (inactive) | –
O=C(O)c1ccc(C2=Nc3cccc4cccc(c34)N2)cc1 | > 100 µM (inactive) | > 100 µM (inactive) | > 100 µM (inactive) | > 100 µM (inactive) | > 100 µM (inactive) | > 100 µM (inactive) | > 100 µM (inactive) | > 100 µM (inactive) | > 100 µM (inactive) | 25.4 µM (inactive) | > 100 µM (inactive) | > 100 µM (inactive) | > 100 µM (inactive) | > 100 µM (inactive) | > 100 µM (inactive) | > 100 µM (inactive) | > 100 µM (inactive) | > 100 µM (inactive) | > 100 µM (inactive)
CCN1CCN(c2ccc(Nc3ccnc4ccc5c(nnn5C)c34)cc2)CC1 | 3.86 µM (inactive) | 7.83 µM (inactive) | 2.99 µM (inactive) | 2.78 µM (inactive) | 1.58 µM (inactive) | 13.1 µM (inactive) | 10.7 µM (inactive) | 8.55 µM (inactive) | 5.46 µM (inactive) | 4.45 µM (inactive) | 2.97 µM (inactive) | 7.23 µM (inactive) | 5.28 µM (inactive) | 7.19 µM (inactive) | 2.98 µM (inactive) | 3.53 µM (inactive) | 15.3 µM (inactive) | 13.2 µM (inactive) | 13.7 µM (inactive)
O=[N+]([O-])c1cc(CCl)ccc1CCl | 1.67 µM (inactive) | 5.79 µM (inactive) | 1.72 µM (inactive) | 1.71 µM (inactive) | 2.48 µM (inactive) | 2.72 µM (inactive) | 1.74 µM (inactive) | 2.33 µM (inactive) | 2.12 µM (inactive) | 2.1 µM (inactive) | 3.44 µM (inactive) | 1.76 µM (inactive) | 1.64 µM (inactive) | 0.585 µM (active) | 2.56 µM (inactive) | 1.53 µM (inactive) | 2.96 µM (inactive) | 3.07 µM (inactive) | 1.82 µM (inactive)
Cc1cc2nc(CC(C(F)(F)F)C(F)(F)F)oc2cc1C | 0.474 µM (active) | 5.79 µM (inactive) | 7.26 µM (inactive) | 1.54 µM (inactive) | 3.56 µM (inactive) | 1.83 µM (inactive) | 1.07 µM (active) | 2.45 µM (inactive) | 1.96 µM (inactive) | – | 3.77 µM (inactive) | 2.19 µM (inactive) | 1.96 µM (inactive) | 2.51 µM (inactive) | 2.73 µM (inactive) | 1.03 µM (active) | 5.21 µM (inactive) | 4.46 µM (inactive) | 2.24 µM (inactive)
Nc1ccc(/C=C/c2ccc3cccnc3c2)cc1 | > 100 µM (inactive) | > 100 µM (inactive) | 52.5 µM (inactive) | > 100 µM (inactive) | > 100 µM (inactive) | > 100 µM (inactive) | > 100 µM (inactive) | > 100 µM (inactive) | > 100 µM (inactive) | > 100 µM (inactive) | > 100 µM (inactive) | – | > 100 µM (inactive) | > 100 µM (inactive) | > 100 µM (inactive) | > 100 µM (inactive) | > 100 µM (inactive) | > 100 µM (inactive) | > 100 µM (inactive)
O=C1CC(=O)NC(NN2C(=O)/C(=C/C(=O)c3ccco3)N=C2c2ccccc2)=N1 | > 100 µM (inactive) | > 100 µM (inactive) | > 100 µM (inactive) | > 100 µM (inactive) | > 100 µM (inactive) | 27.7 µM (inactive) | 92.3 µM (inactive) | > 100 µM (inactive) | 63.7 µM (inactive) | 22.9 µM (inactive) | 30.3 µM (inactive) | 31 µM (inactive) | 29.4 µM (inactive) | 66.8 µM (inactive) | 44.1 µM (inactive) | > 100 µM (inactive) | > 100 µM (inactive) | 92.3 µM (inactive) | –
O=C1c2ccccc2-c2c1c(-c1cccc(Br)c1)nc1ccc3ccccc3c21 | > 100 µM (inactive) | > 100 µM (inactive) | > 100 µM (inactive) | > 100 µM (inactive) | > 100 µM (inactive) | 46.9 µM (inactive) | > 100 µM (inactive) | > 100 µM (inactive) | > 100 µM (inactive) | > 100 µM (inactive) | > 100 µM (inactive) | > 100 µM (inactive) | > 100 µM (inactive) | > 100 µM (inactive) | > 100 µM (inactive) | > 100 µM (inactive) | – | > 100 µM (inactive) | > 100 µM (inactive)
Cc1cc(S(=O)(=O)NC2=Nc3cccc(F)c3CN2)c(S)cc1Cl | 47.5 µM (inactive) | 35.2 µM (inactive) | 66.4 µM (inactive) | > 100 µM (inactive) | > 100 µM (inactive) | > 100 µM (inactive) | 40 µM (inactive) | > 100 µM (inactive) | 68.9 µM (inactive) | 49.3 µM (inactive) | 36.8 µM (inactive) | 68.1 µM (inactive) | 56.2 µM (inactive) | > 100 µM (inactive) | 84.1 µM (inactive) | > 100 µM (inactive) | > 100 µM (inactive) | > 100 µM (inactive) | 75 µM (inactive)
COc1cccc2cc(C(=O)NC34CC5CC(CC(C5)C3)C4)c(=N)oc12 | 59.8 µM (inactive) | 64.7 µM (inactive) | > 67.6 µM (inactive) | 58.3 µM (inactive) | > 54.2 µM (inactive) | 34 µM (inactive) | > 100 µM (inactive) | > 100 µM (inactive) | > 82.4 µM (inactive) | 1.35 µM (inactive) | > 89.7 µM (inactive) | > 60.4 µM (inactive) | 56.6 µM (inactive) | 33.6 µM (inactive) | > 34.3 µM (inactive) | > 100 µM (inactive) | 64 µM (inactive) | > 89.3 µM (inactive) | > 61.8 µM (inactive)
CSc1cc(Cl)c(C)cc1S(=O)(=O)NC(=O)NNc1cnc2ccccc2n1 | > 100 µM (inactive) | > 100 µM (inactive) | > 100 µM (inactive) | > 100 µM (inactive) | > 100 µM (inactive) | > 100 µM (inactive) | > 100 µM (inactive) | > 100 µM (inactive) | > 100 µM (inactive) | 17.5 µM (inactive) | > 100 µM (inactive) | > 100 µM (inactive) | > 100 µM (inactive) | > 100 µM (inactive) | > 100 µM (inactive) | > 100 µM (inactive) | – | – | > 100 µM (inactive)
O=C1NC(N2CCCCC2)=N/C1=C\c1ccccc1 | > 100 µM (inactive) | > 100 µM (inactive) | > 100 µM (inactive) | > 100 µM (inactive) | > 100 µM (inactive) | > 100 µM (inactive) | > 100 µM (inactive) | > 100 µM (inactive) | > 100 µM (inactive) | > 100 µM (inactive) | – | > 100 µM (inactive) | > 100 µM (inactive) | > 100 µM (inactive) | > 100 µM (inactive) | > 100 µM (inactive) | > 100 µM (inactive) | > 100 µM (inactive) | > 100 µM (inactive)
COc1ccc(-c2c(C#N)c(S)n(NS(=O)(=O)c3ccccc3)c(=O)c2C#N)cc1 | 35.2 µM (inactive) | 56.2 µM (inactive) | 55.7 µM (inactive) | 58.1 µM (inactive) | > 100 µM (inactive) | 49 µM (inactive) | 58.6 µM (inactive) | 88.9 µM (inactive) | 34.3 µM (inactive) | 53.2 µM (inactive) | 48.5 µM (inactive) | 46.6 µM (inactive) | 37.7 µM (inactive) | 37.8 µM (inactive) | 24.5 µM (inactive) | 46.5 µM (inactive) | 29.3 µM (inactive) | 80.9 µM (inactive) | –
Cc1ccc(-n2c(N)c(C#N)c3[nH]nc(N)c3c2=O)cc1 | > 100 µM (inactive) | – | > 100 µM (inactive) | > 100 µM (inactive) | > 100 µM (inactive) | > 100 µM (inactive) | > 100 µM (inactive) | > 100 µM (inactive) | > 100 µM (inactive) | > 100 µM (inactive) | > 100 µM (inactive) | > 100 µM (inactive) | > 100 µM (inactive) | > 100 µM (inactive) | > 100 µM (inactive) | – | > 100 µM (inactive) | > 100 µM (inactive) | 95.1 µM (inactive)
COc1cc2c(cc1OC(=O)c1cc3ccccc3[nH]1)N=C[C@@H]1CCCN1C2=O | 0.261 µM (active) | 0.662 µM (active) | 0.244 µM (active) | 0.202 µM (active) | 0.269 µM (active) | 1.3 µM (inactive) | 0.18 µM (active) | 0.418 µM (active) | 0.316 µM (active) | 0.18 µM (active) | 0.344 µM (active) | 0.409 µM (active) | 0.585 µM (active) | 0.165 µM (active) | 0.281 µM (active) | 0.221 µM (active) | 0.355 µM (active) | 0.268 µM (active) | 0.841 µM (active)
